Values quoted from earlier work in patent US7858656B2, “Controlled release formulations containing an active ingredient, preferably melatonin and the method of preparation” (Ambros Pharma S.R.L., priority 2000, dated 2010).

Details: in various species, including man

- half-life of melatonin: 20 to 40 min
Compound: COc1ccc2[nH]cc(CCNC(C)=O)c2c1 [melatonin, N-acetyl-5-methoxytryptamine]
